Assay results as given in the CheMixHub viscosity set.
± gives the uncertainty stated by the source.

Experiment: xn = mol fraction of the nth substance listed

CCCCC(C)O (stereo not drawn) + CN(C)C=O
viscosity (298.15 K, 101 kPa, x2 = 0.1088): 3.26 ± 0.07 mPa·s
viscosity (298.15 K, 101 kPa, x2 = 0.1532): 3.03 ± 0.07 mPa·s
viscosity (298.15 K, 101 kPa, x2 = 0.2402): 2.7 ± 0.1 mPa·s
viscosity (298.15 K, 101 kPa, x2 = 0.3448): 2.41 ± 0.05 mPa·s
viscosity (298.15 K, 101 kPa, x2 = 0.441): 2.17 ± 0.05 mPa·s
viscosity (298.15 K, 101 kPa, x2 = 0.5601): 1.87 ± 0.04 mPa·s
viscosity (298.15 K, 101 kPa, x2 = 0.6546): 1.63 ± 0.04 mPa·s
viscosity (298.15 K, 101 kPa, x2 = 0.7434): 1.4 ± 0.1 mPa·s
viscosity (298.15 K, 101 kPa, x2 = 0.843): 1.17 ± 0.03 mPa·s
viscosity (298.15 K, 101 kPa, x2 = 0.9374): 0.97 ± 0.02 mPa·s
viscosity (303.15 K, 101 kPa, x2 = 0.1088): 2.67 ± 0.06 mPa·s
viscosity (303.15 K, 101 kPa, x2 = 0.1532): 2.49 ± 0.06 mPa·s
viscosity (303.15 K, 101 kPa, x2 = 0.2402): 2.23 ± 0.05 mPa·s
viscosity (303.15 K, 101 kPa, x2 = 0.3448): 1.99 ± 0.05 mPa·s
viscosity (303.15 K, 101 kPa, x2 = 0.441): 1.79 ± 0.04 mPa·s
viscosity (303.15 K, 101 kPa, x2 = 0.5601): 1.56 ± 0.04 mPa·s
viscosity (303.15 K, 101 kPa, x2 = 0.6546): 1.39 ± 0.03 mPa·s
viscosity (303.15 K, 101 kPa, x2 = 0.7434): 1.23 ± 0.03 mPa·s
viscosity (303.15 K, 101 kPa, x2 = 0.843): 1.05 ± 0.02 mPa·s
viscosity (303.15 K, 101 kPa, x2 = 0.9374): 0.87 ± 0.02 mPa·s
viscosity (308.15 K, 101 kPa, x2 = 0.1088): 2.19 ± 0.05 mPa·s
viscosity (308.15 K, 101 kPa, x2 = 0.1532): 2.01 ± 0.05 mPa·s
viscosity (308.15 K, 101 kPa, x2 = 0.2402): 1.8 ± 0.1 mPa·s
viscosity (308.15 K, 101 kPa, x2 = 0.3448): 1.61 ± 0.04 mPa·s
viscosity (308.15 K, 101 kPa, x2 = 0.441): 1.47 ± 0.03 mPa·s
viscosity (308.15 K, 101 kPa, x2 = 0.5601): 1.3 ± 0.1 mPa·s
viscosity (308.15 K, 101 kPa, x2 = 0.6546): 1.18 ± 0.03 mPa·s
viscosity (308.15 K, 101 kPa, x2 = 0.7434): 1.06 ± 0.02 mPa·s
viscosity (308.15 K, 101 kPa, x2 = 0.843): 0.93 ± 0.02 mPa·s
viscosity (308.15 K, 101 kPa, x2 = 0.9374): 0.8 ± 0.1 mPa·s
viscosity (313.15 K, 101 kPa, x2 = 0.1088): 1.7 ± 0.1 mPa·s
viscosity (313.15 K, 101 kPa, x2 = 0.1532): 1.53 ± 0.04 mPa·s
viscosity (313.15 K, 101 kPa, x2 = 0.2402): 1.36 ± 0.03 mPa·s
viscosity (313.15 K, 101 kPa, x2 = 0.3448): 1.23 ± 0.03 mPa·s
viscosity (313.15 K, 101 kPa, x2 = 0.441): 1.13 ± 0.03 mPa·s
viscosity (313.15 K, 101 kPa, x2 = 0.5601): 1.03 ± 0.03 mPa·s
viscosity (313.15 K, 101 kPa, x2 = 0.6546): 0.96 ± 0.02 mPa·s
viscosity (313.15 K, 101 kPa, x2 = 0.7434): 0.89 ± 0.02 mPa·s
viscosity (313.15 K, 101 kPa, x2 = 0.843): 0.81 ± 0.02 mPa·s
viscosity (313.15 K, 101 kPa, x2 = 0.9374): 0.73 ± 0.02 mPa·s

CN(C)c1ccccc1 + CCCO
viscosity (303.15 K, 101 kPa, x1 = 0.0503): 1.685 ± 0.016 mPa·s
viscosity (303.15 K, 101 kPa, x1 = 0.1049): 1.625 ± 0.015 mPa·s
viscosity (303.15 K, 101 kPa, x1 = 0.1825): 1.552 ± 0.015 mPa·s
viscosity (303.15 K, 101 kPa, x1 = 0.2575): 1.482 ± 0.014 mPa·s
viscosity (303.15 K, 101 kPa, x1 = 0.3423): 1.413 ± 0.014 mPa·s
viscosity (303.15 K, 101 kPa, x1 = 0.3929): 1.377 ± 0.013 mPa·s
viscosity (303.15 K, 101 kPa, x1 = 0.4121): 1.365 ± 0.013 mPa·s
viscosity (303.15 K, 101 kPa, x1 = 0.4703): 1.328 ± 0.013 mPa·s
viscosity (303.15 K, 101 kPa, x1 = 0.5523): 1.29 ± 0.013 mPa·s
viscosity (303.15 K, 101 kPa, x1 = 0.6229): 1.265 ± 0.013 mPa·s
viscosity (303.15 K, 101 kPa, x1 = 0.7221): 1.242 ± 0.012 mPa·s
viscosity (303.15 K, 101 kPa, x1 = 0.8096): 1.225 ± 0.012 mPa·s
viscosity (303.15 K, 101 kPa, x1 = 0.9023): 1.198 ± 0.012 mPa·s
viscosity (303.15 K, 101.33 kPa, x1 = 0.1011): 1.587 ± 0.025 mPa·s
viscosity (303.15 K, 101.33 kPa, x1 = 0.1989): 1.345 ± 0.022 mPa·s
viscosity (303.15 K, 101.33 kPa, x1 = 0.2994): 1.249 ± 0.021 mPa·s
viscosity (303.15 K, 101.33 kPa, x1 = 0.4015): 1.194 ± 0.02 mPa·s
viscosity (303.15 K, 101.33 kPa, x1 = 0.4992): 1.153 ± 0.019 mPa·s
viscosity (303.15 K, 101.33 kPa, x1 = 0.598): 1.126 ± 0.019 mPa·s
viscosity (303.15 K, 101.33 kPa, x1 = 0.7024): 1.117 ± 0.019 mPa·s
viscosity (303.15 K, 101.33 kPa, x1 = 0.798): 1.126 ± 0.019 mPa·s
viscosity (303.15 K, 101.33 kPa, x1 = 0.9026): 1.154 ± 0.02 mPa·s
viscosity (308.15 K, 101.33 kPa, x1 = 0.1011): 1.335 ± 0.022 mPa·s
viscosity (308.15 K, 101.33 kPa, x1 = 0.1989): 1.214 ± 0.02 mPa·s
viscosity (308.15 K, 101.33 kPa, x1 = 0.2994): 1.134 ± 0.019 mPa·s
viscosity (308.15 K, 101.33 kPa, x1 = 0.4015): 1.09 ± 0.018 mPa·s
viscosity (308.15 K, 101.33 kPa, x1 = 0.4992): 1.057 ± 0.018 mPa·s
viscosity (308.15 K, 101.33 kPa, x1 = 0.598): 1.034 ± 0.018 mPa·s
viscosity (308.15 K, 101.33 kPa, x1 = 0.7024): 1.044 ± 0.018 mPa·s
viscosity (308.15 K, 101.33 kPa, x1 = 0.798): 1.037 ± 0.018 mPa·s
viscosity (308.15 K, 101.33 kPa, x1 = 0.9026): 1.071 ± 0.019 mPa·s
viscosity (313.15 K, 101.33 kPa, x1 = 0.1011): 1.205 ± 0.02 mPa·s
viscosity (313.15 K, 101.33 kPa, x1 = 0.1989): 1.1 ± 0.018 mPa·s
viscosity (313.15 K, 101.33 kPa, x1 = 0.2994): 1.033 ± 0.017 mPa·s
viscosity (313.15 K, 101.33 kPa, x1 = 0.4015): 0.9974 ± 0.017 mPa·s
viscosity (313.15 K, 101.33 kPa, x1 = 0.4992): 0.9763 ± 0.017 mPa·s
viscosity (313.15 K, 101.33 kPa, x1 = 0.598): 0.9608 ± 0.017 mPa·s
viscosity (313.15 K, 101.33 kPa, x1 = 0.7024): 0.965 ± 0.017 mPa·s
viscosity (313.15 K, 101.33 kPa, x1 = 0.798): 0.9602 ± 0.017 mPa·s
viscosity (313.15 K, 101.33 kPa, x1 = 0.9026): 0.9947 ± 0.017 mPa·s
viscosity (318.15 K, 101.33 kPa, x1 = 0.1011): 1.091 ± 0.018 mPa·s
viscosity (318.15 K, 101.33 kPa, x1 = 0.1989): 1.005 ± 0.017 mPa·s
viscosity (318.15 K, 101.33 kPa, x1 = 0.2994): 0.9491 ± 0.016 mPa·s
viscosity (318.15 K, 101.33 kPa, x1 = 0.4015): 0.9328 ± 0.016 mPa·s
viscosity (318.15 K, 101.33 kPa, x1 = 0.4992): 0.9019 ± 0.016 mPa·s
viscosity (318.15 K, 101.33 kPa, x1 = 0.598): 0.8881 ± 0.015 mPa·s
viscosity (318.15 K, 101.33 kPa, x1 = 0.7024): 0.8981 ± 0.016 mPa·s
viscosity (318.15 K, 101.33 kPa, x1 = 0.798): 0.8961 ± 0.016 mPa·s
viscosity (318.15 K, 101.33 kPa, x1 = 0.9026): 0.9284 ± 0.016 mPa·s
viscosity (323.15 K, 101.33 kPa, x1 = 0.1011): 0.9913 ± 0.017 mPa·s
viscosity (323.15 K, 101.33 kPa, x1 = 0.1989): 0.9196 ± 0.016 mPa·s
viscosity (323.15 K, 101.33 kPa, x1 = 0.2994): 0.8709 ± 0.015 mPa·s
viscosity (323.15 K, 101.33 kPa, x1 = 0.4015): 0.8513 ± 0.015 mPa·s
viscosity (323.15 K, 101.33 kPa, x1 = 0.4992): 0.8384 ± 0.015 mPa·s
viscosity (323.15 K, 101.33 kPa, x1 = 0.598): 0.8254 ± 0.015 mPa·s
viscosity (323.15 K, 101.33 kPa, x1 = 0.7024): 0.8357 ± 0.015 mPa·s
viscosity (323.15 K, 101.33 kPa, x1 = 0.798): 0.8364 ± 0.015 mPa·s
viscosity (323.15 K, 101.33 kPa, x1 = 0.9026): 0.8751 ± 0.016 mPa·s
